Results from a melting point compilation (Tetko et al.).

For `CC(C)(c1ccc(OCC2CO2)cc1)c1ccc(OCC2CO2)cc1` (stereo not drawn), the melting point was 10 °C.
`O=Cc1ccc(-c2ccccn2)s1` gave a melting point of 122 to 123 °C.
For `N#Cc1cccc(Cl)c1`, the melting point was 41 °C.
With `CCCCCCCCCCCCOc1ccc(C(C)=O)cc1` the melting point was 44 to 47 °C.
In the case of `Cn1cc(Br)c(-c2cccc(N)c2)n1`, the melting point was 95 to 97 °C.
`O=[N+]([O-])c1ccc(-c2ccc(/N=N/c3ccccc3)cc2)cc1` showed a melting point of 178 to 179 °C.
Work on `Cc1cc([N+](=O)[O-])ccc1I` yielded a melting point of 102 °C.
For `O=C(O)C1CC1(F)F` (stereo not drawn), the melting point was 58 °C.
`OCc1ccc(Br)cc1F` gave a melting point of 32 °C.
Compound `Cc1ccccc1NN=C1C(=O)NC(=O)NC1=O` has a melting point of 265 °C.
`COc1ccccc1Oc1ccccc1OC` gave a melting point of 79.5 °C.
For `COC(=O)c1sccc1Cl`, the melting point was 39 to 40 °C.
Work on `O=C1CSCC(=O)O1` yielded a melting point of 94 to 97 °C.
For `NS(=O)(=O)c1ccc(N2CCCCS2(=O)=O)cc1`, the melting point was 180 °C.
In the case of `CC1=NNC(=O)CC1`, the melting point was 79 to 83 °C.
`Cc1cc(O)c(C(C)(C)C)cc1C(C)CC(c1cc(C(C)(C)C)c(O)cc1C)c1cc(C(C)(C)C)c(O)cc1C` (stereo not drawn) showed a melting point of 186 °C.
With `Cc1cc(C)c([N+](=O)[O-])c(F)c1` the melting point was 56 °C.
`COc1ccc2c(c1)c(C=O)cn2C` showed a melting point of 135 °C.
For `CCCCCCCCc1ccc(/N=N/c2ccc(OC(=O)CCCCCCC)cc2)cc1`, the melting point was 58 to 63 °C.
For `C(C#CCOc1ccccc1)#CCOc1ccccc1`, the melting point was 82 °C.
`NC(=NO)c1c(Cl)cccc1Cl` gave a melting point of 163 to 166 °C.
For `COc1cccc(C(=O)C(=O)c2cccc(OC)c2)c1`, the melting point was 82 °C.
Work on `CC1(CO)CN(c2ccccc2)NC1=O` (stereo not drawn) yielded a melting point of 125 °C.
For `CN(N=O)c1ccc(N=O)cc1`, the melting point was 101 °C.
With `COP(=S)(OC)Oc1ccc([N+](=O)[O-])c(C)c1` the melting point was 3.4 °C.
With `CSc1nc(N)nc(C23CC4CC(CC(C4)C2)C3)n1` the melting point was 208 to 210 °C.
`NCc1cccc(-c2ccccc2)c1` showed a melting point of 28 to 30 °C.
`CC(C)c1ccccc1C(C)C` showed a melting point of -57 °C.
`Cc1cc(C(F)(F)F)n2nc(-c3ccc(Cl)cc3)cc2n1` showed a melting point of 176 °C.
For `CC12CCC(C1(C)C)C(CC(Br)=Cc1ccccc1)(C1(CC(Br)=Cc3ccccc3)C(=O)C3(C)CCC1C3(C)C)C2=O` (stereo not drawn), the melting point was 118 °C.
In the case of `Cn1c(N)cc(=O)[nH]c1=O`, the melting point was 300 °C.
For `CCOC(=O)NNC(=O)Nc1ccc(Cl)cc1`, the melting point was 194 °C.
`CN(C)C(=O)COC1CCN(C(=O)OC(C)(C)C)CC1` gave a melting point of 58 °C.
With `CCC1C(=O)CCC1=O` the melting point was 172 to 175 °C.
With `CC(=O)Nc1ccc(Br)c(Cl)c1` the melting point was 125 to 128 °C.
For `CC(=O)Oc1ccc(OC(C)=O)c2ccccc12`, the melting point was 124 °C.
For `COC(CC(C)=O)OC`, the melting point was -82 °C.
Work on `Cc1cc2ccccc2n1C` yielded a melting point of 56.5 °C.
In the case of `CCCCCCCCCCCCCCCCCCC(=O)NC`, the melting point was 91 to 94 °C.
In the case of `Brc1ccc(-c2ccccn2)s1`, the melting point was 87 to 89 °C.
In the case of `COc1cc(C2Nn3c(nnc3-c3ccc([N+](=O)[O-])cc3)S2)ccc1O` (stereo not drawn), the melting point was 226 °C.
Work on `COc1ccc2nsnc2c1` yielded a melting point of 82 to 83 °C.
`CCCCCCN(CCCCCC)C(=O)COC(=O)c1ccccc1` gave a melting point of 162 °C.
With `O=C(OC(Cl)(Cl)Cl)C(Cl)(Cl)Cl` the melting point was 34 °C.
Compound `Nc1cccc(Oc2ccc(S(=O)(=O)c3ccc(Oc4cccc(N)c4)cc3)cc2)c1` has a melting point of 132 to 135 °C.
With `FC(F)(F)c1ccc2c(Cl)ccnc2c1` the melting point was 69 to 73 °C.
`N#Cc1ccc2c(c1)COC2=O` showed a melting point of 201 to 205 °C.
`Cn1c(=O)c(C2=NNC(=O)C2=NNc2cc(Cl)ccc2Cl)c(O)c2ccccc21` gave a melting point of 284 °C.
`COc1cc(-c2ccc(N=C=O)c(OC)c2)ccc1N=C=O` gave a melting point of 114 °C.
Compound `CC(C)(S)C(N)C(=O)O` (stereo not drawn) has a melting point of 212 °C.
`CCOC(=O)C1C(c2ccccc2)C(C(=O)OCC)C(O)(C(F)(F)F)NC1(O)C(F)(F)F` (stereo not drawn) gave a melting point of 234 °C.
Work on `CC(O)(P(=O)(O)O)P(=O)(O)O` yielded a melting point of 199 °C.
Compound `CC(C)(O)CCc1ccccc1` has a melting point of 24.5 °C.
`c1ccc(COc2cccc3[nH]ccc23)cc1` showed a melting point of 60 °C.
`Cc1cccc2c(O)noc12` gave a melting point of 155 to 157 °C.
For `Cc1ccccc1/C=C(/C#N)c1nc2ccccc2c(=O)[nH]1`, the melting point was 258 °C.
Compound `C=Cc1ccccc1` has a melting point of -31 °C.
`CCCCCOC=O` gave a melting point of -73.5 °C.
For `CC(=O)OC1CCCCC1`, the melting point was -65 °C.
Compound `CCCCCCCCCCCCCC#N` has a melting point of 19 °C.
In the case of `c1ccc2cc3c(cc2c1)oc1ccccc13`, the melting point was 202 to 207 °C.
Work on `CC(=O)NNC(C)=O` yielded a melting point of 140 °C.
Work on `Cc1cc(C)c2ccccc2c1C` yielded a melting point of 55.5 °C.
With `NNC(=O)c1ccc(O)c(N)c1` the melting point was 251 °C.
Compound `CCc1cccc(CC)c1NC(=O)CCl` has a melting point of 130 °C.
With `CN1C(=O)CC(c2ccccc2)C1=O` (stereo not drawn) the melting point was 72 °C.
`N#Cc1ccsc1N` gave a melting point of 103 to 106 °C.
In the case of `O=C(Nc1ccccc1)OCCc1ccc(CCOC(=O)Nc2ccccc2)cc1`, the melting point was 213 °C.
Work on `Cc1ccc(S(=O)(=O)Oc2c(C(=O)c3ccc(Cl)cc3Cl)c(C)nn2C)cc1` yielded a melting point of 118 °C.
`Cc1oc(-c2ccc(Cl)cc2)cc1C(=O)O` showed a melting point of 231 to 232 °C.
Work on `COc1ccc(-c2onc(C(=O)c3ccc([N+](=O)[O-])cc3)c2S(=O)(=O)c2ccccc2)cc1` yielded a melting point of 128 °C.
Work on `O=C(O)c1ccc(-c2cccs2)s1` yielded a melting point of 177 to 178 °C.
For `CC(C)OC(C)(C)C`, the melting point was -88 °C.
With `O=C(c1ccccn1)C(O)c1ccccn1` (stereo not drawn) the melting point was 151 to 158 °C.
Compound `S=C=Nc1ccc(N2CCOCC2)cc1` has a melting point of 84 to 85 °C.
For `N#CCc1cccc([N+](=O)[O-])c1`, the melting point was 63 °C.
`O=C(CBr)c1ccc2c(c1)OCO2` gave a melting point of 91 to 93 °C.
In the case of `Cc1cccc2c1ccc1ccccc12`, the melting point was 123 °C.
In the case of `C=Cc1ccc(CC)cc1`, the melting point was -49.7 °C.
Compound `CCOC(=O)c1nn(-c2ccc(F)cc2)c(-c2cccs2)c1S(=O)(=O)c1ccccc1` has a melting point of 151 °C.
Work on `Nc1ccc([N+](=O)[O-])cc1Cl` yielded a melting point of 108 °C.
`CCCCCCCCCCCc1ccccc1` gave a melting point of -5 °C.
With `COc1ccc(C)cc1N` the melting point was 53 °C.
`N#CCc1cccc(CC#N)c1F` showed a melting point of 75 to 77 °C.
With `CCCCNC(=O)OCC#CI` the melting point was 66 °C.
With `Cc1ccc(S(=O)(=O)OCC2COC(C)(C)O2)cc1` (stereo not drawn) the melting point was 29 to 31 °C.
In the case of `COCCOCCOCCO`, the melting point was -44 °C.
Compound `O=C(O)c1cn(S(=O)(=O)c2ccccc2)c2ccccc12` has a melting point of 232 °C.
Work on `BrCc1ccc(OC2CCOCC2)cc1` yielded a melting point of 56 to 58 °C.
With `Nc1nn2c(C(F)(F)F)cc(=O)[nH]c2c1/N=N/c1cccc2ccccc12` the melting point was 290 °C.
Work on `CC1CS1` (stereo not drawn) yielded a melting point of -91 °C.
With `COC(=O)c1ccc(C(=O)CC#N)cc1` the melting point was 170 to 174 °C.
Work on `COc1ccc2c(c1OC)C(=O)OC2C1c2cc3c(cc2CCN1C)OCO3` (stereo not drawn) yielded a melting point of 132 °C.
In the case of `CC(=O)OCC1OC(n2cc(I)c(=O)[nH]c2=O)CC1OC(C)=O` (stereo not drawn), the melting point was 161 to 163 °C.
`O=C(O)C=Cc1ccc(Sc2ccccn2)c([N+](=O)[O-])c1` gave a melting point of 177 to 178 °C.
`Cc1cccc(C=CC(=O)O)c1` showed a melting point of 116 to 119 °C.
`Nc1n[nH]c(N)c1Cc1ccc(Cl)cc1` showed a melting point of 165 to 167 °C.
In the case of `COc1ccc(COC(=O)NN)cc1`, the melting point was 76 °C.
`CC(=O)Nc1cccc(N)c1C(=O)O` gave a melting point of 184 °C.
With `Sc1c(Cl)c(Cl)c(Cl)c(Cl)c1Cl` the melting point was 232 °C.
With `Cc1nc(-c2ccc(C(F)(F)F)cc2)sc1C(=O)O` the melting point was 237 to 238 °C.
`CC(C)=CC1C(C(=O)OCc2coc(Cc3ccccc3)c2)C1(C)C` (stereo not drawn) gave a melting point of 56.5 °C.
For `C#CC(O)COc1cccc(C(F)(F)F)c1` (stereo not drawn), the melting point was 32 °C.
`Cc1c(F)c(F)c(CBr)c(F)c1F` gave a melting point of 42 °C.
With `Nc1ccc(S(=O)(=O)Nc2cnccn2)cc1` the melting point was 251 °C.
Compound `CC(C)(C)OCC1CO1` (stereo not drawn) has a melting point of -70 °C.
With `O=Cc1ccc(-c2cncnc2)cc1` the melting point was 147 to 148 °C.
Compound `c1ccc(-c2nc3ccccc3[nH]2)nc1` has a melting point of 223 °C.
`C=CCc1ccc(OC(C)=O)c(OC)c1` showed a melting point of 30.5 °C.
With `COc1ccccc1C=C1C(=O)NN=C1c1c(O)c2ccccc2n(C)c1=O` the melting point was 266 °C.
With `O=C1c2ccccc2C(=O)N1CC#CCCl` the melting point was 118 °C.
Compound `CC1(C)OC(=O)C2CCCCC21` (stereo not drawn) has a melting point of 80 °C.
For `COCC(C)OC(C)=O` (stereo not drawn), the melting point was -87 °C.
In the case of `NC(=O)Cc1ccc(O)cc1`, the melting point was 176 to 180 °C.
Compound `CC(=O)O[C@H]1C[C@H]2[C@@H]3CCC4CCCC[C@]4(C)[C@H]3CC[C@]2(C)C1` (stereo partly drawn) has a melting point of 108 °C.
With `Nc1ccc2cc(C(=O)O)ccc2c1` the melting point was 222 to 227 °C.
In the case of `CN(C)c1cccc2oc3c(cnn3-c3ccccc3)c(=O)c12`, the melting point was 184 to 186 °C.
Work on `Cc1cc2ccccc2cc1COC(=O)C(F)(F)F` yielded a melting point of 92 °C.
In the case of `NC(=S)Nc1ccc2c(c1)OCO2`, the melting point was 198 to 200 °C.
`FC(F)(F)c1cc(-c2ccc3c(c2)OCO3)n[nH]1` showed a melting point of 177 to 179 °C.
With `O=C1C=CC2(CCC23C=CC(=O)O3)O1` (stereo not drawn) the melting point was 158 °C.
In the case of `CC(C)(C(=O)O)C(CC(=O)O)c1ccccc1` (stereo not drawn), the melting point was 171 °C.
For `N#Cc1c(-c2ccc(Br)cc2)cc2c(C#N)c(=N)n(C(=O)c3ccc(Cl)cc3)n2c1N`, the melting point was 190 °C.
`Cc1ccc(N=C=Nc2ccc(C)cc2)cc1` showed a melting point of 58.5 °C.
Compound `N#CC1(O)C(C2COC3(CCCCC3)O2)OC2OC3(CCCCC3)OC21` (stereo not drawn) has a melting point of 107 to 113 °C.
In the case of `NC(=S)Cn1cnc(Cl)c1Cl`, the melting point was 204 to 207 °C.
`CN1CCc2cc(O)c(O)cc2C1` gave a melting point of 255 °C.
For `Fc1ccc(Br)cc1Br`, the melting point was 69 °C.
With `NC(=O)C1(N2CCCCC2)CCNCC1` the melting point was 129 to 132 °C.
`CC1=C(C)C(=O)c2ccccc2C1=O` gave a melting point of 127 °C.
In the case of `OCCN1CCN(Cc2ccc(F)cc2)CC1`, the melting point was 55 to 56 °C.
`CC(C)(C)C(=O)C(C)(C)C` gave a melting point of -25.2 °C.
`CC(=O)NCc1c(I)c(NC(C)=O)c(I)c(C(=O)O)c1I` showed a melting point of 255 °C.
